{"source": "ChEMBL document CHEMBL3091331", "about": "“Aminothiazole-featured pirinixic acid derivatives as dual 5-lipoxygenase and microsomal prostaglandin E2 synthase-1 inhibitors with improved potency and efficiency in vivo” (J Med Chem, 2013)", "biological_target": "T1, Prostaglandin E synthase (Homo sapiens, UniProt O14684)", "T1 sequence (O14684 whole entry)": "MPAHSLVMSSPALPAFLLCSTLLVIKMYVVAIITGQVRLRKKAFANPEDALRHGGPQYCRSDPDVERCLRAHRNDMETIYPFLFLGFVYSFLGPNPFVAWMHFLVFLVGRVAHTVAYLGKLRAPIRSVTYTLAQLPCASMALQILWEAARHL", "experiment": "Inhibition of mPGES-1 from human A549 cell microsomal membranes using PGH2 as substrate incubated 15 mins prior to substrate addition measured after 1 min by RP-HPLC analysis", "data": [{"smiles": "CCCCCCC(Sc1nc(Cl)cc(Nc2nc(-c3ccc4ccccc4c3)cs2)n1)C(=O)O", "note": "(racemic)", "values": [{"measurement": "IC50", "value": 400, "unit": "nM"}]}]}
